This note sets out measurements from US4191770A, “N1 -acyl-N2 -phenyldiaminopropanols and pharmaceutical compositions thereof” (Kali-Chemie Pharma GmbH, priority 1977, dated 1980).

A word on the LD50: it is the dose at which mortality reaches 50%.

Series [1] concerns indomethacine induced ulcers. As to the kind of experiment: Effectiveness against indomethacine-induced ulcers in the rat. It counts as in vivo, rats. Conditions: for inhibition in vivo at 150 mg/kg: dosage 150 mg/kg p.o.; for inhibition in vivo at 75 mg/kg: dosage 75 mg/kg p.o.; for inhibition in vivo at 68 mg/kg: dosage 68 mg/kg p.o. On the procedure: 2. Effectiveness against indomethacineinduced ulcers in the rate (Modified test procedure according to
To at least 6 male rats, having a body-weight of from 170 to 220 g, dosages of the test compounds are administered orally in an amount of 0.5 ml of a suspension medium per 100 g animal body-weight. The animals of the blank control group receive the corresponding amount by volume of the suspension medium only. One hour after application of the test compounds, a dosage of 20 mg per kg of indomethacine contained in an amount of 0.5 ml of a suspension per 100 g animal body-weight, are orally applied to each animal for producing ulcers. 24 hours after the application of indomethacine, the animals are sacrificed.
The mean value and the standard deviation of the numbers of ulcers is calculated, and subsequently the inhibiting activity of the test compounds and a standard compound are calculated as percent inhibition compared with the blank control group.

A further series has as its system secretion in the stomach. The series can be described thus: Effect on the secretion in the stomach of narcotized rats (determination of the pH-value). The series is classed as in vivo. The conditions noted are these: for inhibition in vivo at 300 mg/kg: po, dosage 300 mg/kg p.o., narcotized rats, acetylcholine control = 100. Here is the method: 3. Effect on the secretion in the stomach of narcotized rats (determinationof the pH-value)
The test is performed on narcotized (urethane narcosis) male rats, having a body-weight of 200-230 g. For this purpose N/4000-sodium hydroxide solution is perfused into the stomachs of rats at a rate of 1 ml per minute by means of a cardia- and pylorus-catheter. The pH value of the perfusate, which leaves the stomach by way of the pylorus catheter, is determined by means of a one-rod measuring system, and is continuously registered.
In order to perform a comparative control test, after a pre-run period of 20 minutes, 10 mg per kg of acetylcholine are applied intraperitoneously. The resulting comparative control value is defined as being 100.
For evaluation, the surface-integral is calculated numerically with the aid of the rule of Simpson. The degree of inhibition of the secretion is calculated from the difference between the surfaces before and after the application of the test compound.

The next series is described as follows: in vivo. Conditions: mouse, po, single dose p.o., unfed NMRI mice, 7 days, read-out: Toxicity LD50 p.o. On the procedure: The acute 7-day-toxicity is determined after a single application per os in white NMRI-mice which had not been fed. The calculation of the LD50 is carried out by probitanalysis by means of electronic data processing (see L. Cavalli-Sforza, Gustav Fischer-Verlag, Stuttgart (1964), Grundbegriffe der Biometrie, p. 153).

Setting [2] is: at a low dosage, footnote of Table I.
Where [3] appears, read: Rattus norvegicus, po, 1 h before 20 mg/kg indomethacine, 24 h.

Where a name gives a salt, the structure may show the parent alone. A value given as a limit tells only on which side of the number the result lay.

The compound `CN1[C@@H]2CC[C@H]1C[C@@H](OC(=O)C(CO)c1ccccc1)C2` (stereo partly shown) [A, atropine sulfate, reference compound] showed an inhibition in vivo at 12 mg/kg in series [1] (Rattus norvegicus, po, dosage 12 mg/kg p.o., 1 h before 20 mg/kg indomethacine, 24 h) of 26%. The “effect on the ulcer (in words)” value in series [1] (setting [2]) was “does not have a sufficiently”. Also, in the series on secretion in the stomach (Rattus norvegicus, ip, read-out: Inhibition of secretion in the stomach, % inhibition), the inhibition in vivo at 0.5 mg/kg came out at 100%. In addition, in the series with secretion in the stomach (setting [2]), the “inhibition of the secretion in the stomach (in words)” value is reported as “strong inhibition”.
Consider `CC(=O)NCC(O)CN(C)c1ccc(Cl)cc1` (stereo not shown) [Compound 1, N1-acetyl-N2-methyl-N2-(4-chlorophenyl)-1,3-diaminopropan-2-ol], for which the LD50 at 168 h in the series “in vivo” worked out at 2260 mg/kg. Besides, in series [1] (setting [3]), the inhibition in vivo at 150 mg/kg stood at 33%. This compound registered an inhibition in vivo at 300 mg/kg with secretion in the stomach (Rattus norvegicus) of 0%.
With `CCCCCC(=O)NCC(O)CN(C)c1ccc(F)cc1` (stereo not shown) [Compound 2, N1-hexanoyl-N2-methyl-N2-(4-fluorophenyl)-1,3-diaminopropan-2-ol], in “in vivo”, the 50% lethal dose (LD50) at 168 h was 4320 mg/kg. The same compound showed an inhibition in vivo at 150 mg/kg in series [1] (setting [3]) of 44%. This compound also registered an inhibition in vivo at 300 mg/kg with secretion in the stomach (Rattus norvegicus) of 0%.
On the same counts, the results for `CCCCCCCCCCCCCCCC(=O)NCC(O)CN(C)c1ccc(Cl)cc1` (stereo not shown) [Compound 3, N1-hexadecanoyl-N2-methyl-N2-(4-chlorophenyl)-1,3-diaminopropan-2-ol] are greater than 6810 mg/kg, 40% and 0%.
Taken in the same sequence, the figures for `CN(CC(O)CNC(=O)C1CC1)c1ccccc1` (stereo not shown) [Compound 4, N1-cyclopropylcarbonyl-N2-methyl-N2-phenyl-1,3-diaminopropan-2-ol] were greater than 1470 mg/kg, 36% and 0%.
On the same counts, the results for `CN(CC(O)CNC(=O)C1CCCCC1)c1ccccc1` (stereo not shown) [Compound 5, N1-cyclohexylcarbonyl-N2-methyl-N2-phenyl-1,3-diaminopropan-2-ol] are 3200 mg/kg, 47% and 0%.
With `CN(CC(O)CNC(=O)C1CCCCC1)c1ccc(F)cc1` (stereo not shown) [Compound 6, N1-cyclohexylcarbonyl-N2-methyl-N2-(4-fluorophenyl)-1,3-diaminopropan-2-ol], the 50% lethal dose (LD50) at 168 h in the series “in vivo” was greater than 1470 mg/kg. Further, the inhibition in vivo at 150 mg/kg in series [1] (setting [3]) is 40%. The inhibition in vivo at 300 mg/kg in the series with secretion in the stomach (Rattus norvegicus) was 0%.
In the case of `CCCN(CC(O)CNC(=O)C1CCCCC1)c1ccccc1` (stereo not shown) [Compound 7, N1-cyclohexylcarbonyl-N2-propyl-N2-phenyl-1,3-diaminopropan-2-ol], in the series “in vivo”, the LD50 at 168 h was greater than 1470 mg/kg. For the same compound, the inhibition in vivo at 150 mg/kg in series [1] (setting [3]) came out at 34%. Besides, the inhibition in vivo at 300 mg/kg in the series on secretion in the stomach (Rattus norvegicus) was 0%.
Regarding `CN(CC(O)CNC(=O)Cc1ccccc1)c1ccc(Cl)cc1` (stereo not shown) [Compound 8, N1-phenacetyl-N2-methyl-N2-(4-chlorophenyl)-1,3-diaminopropan-2-ol], the median lethal dose (LD50) at 168 h in the series “in vivo” came to 3860 mg/kg. In addition, the inhibition in vivo at 75 mg/kg in series [1] (setting [3]) stood at 26%. Moreover, the inhibition in vivo at 300 mg/kg in the series with secretion in the stomach (Rattus norvegicus) was determined as 0%.
`CN(CC(O)CNC(=O)C=Cc1ccccc1)c1ccc(Cl)cc1` (stereo not shown) [Compound 9, N1-cinnamoyl-N2-methyl-N2-(4-chlorophenyl)-1,3-diaminopropan-2-ol]: the median lethal dose (LD50) at 168 h in the series “in vivo” was greater than 6810 mg/kg. The compound further showed an inhibition in vivo at 68 mg/kg in series [1] (setting [3]) of 32%. This compound registered an inhibition in vivo at 300 mg/kg in the series on secretion in the stomach (Rattus norvegicus) of 0%.
On to `COc1ccc(C=CC(=O)NCC(O)CN(C)c2ccc(Cl)cc2)cc1OC` (stereo not shown) [Compound 10, N1-(3,4-dimethoxycinnamoyl)-N2-methyl-N2-(4-chlorophenyl)-1,3-diaminopropan-2-ol], for which, in “in vivo”, the LD50 at 168 h was greater than 6810 mg/kg. For the same compound, in series [1] (setting [3]), the inhibition in vivo at 75 mg/kg came out at 32%. Also, the inhibition in vivo at 300 mg/kg with secretion in the stomach (Rattus norvegicus) came to 0%.
Turning to `CN(CC(O)CNC(=O)c1ccccn1)c1ccc(Cl)cc1` (stereo not shown) [Compound 11, N1-picolinoyl-N2-methyl-N2-(4-chlorophenyl)-1,3-diaminopropan-2-ol], the LD50 at 168 h in “in vivo” was determined as 3300 mg/kg. Besides, the inhibition in vivo at 68 mg/kg in series [1] (setting [3]) was 71%. The compound further registered an inhibition in vivo at 300 mg/kg in the series with secretion in the stomach (Rattus norvegicus) of 0%.
As to `CN(CC(O)CNC(=O)c1ccco1)c1ccc(Cl)c(Cl)c1` (stereo not shown) [Compound 12, N1-furoyl-N2-methyl-N2-(3,4-dichlorophenyl)-1,3-diaminopropan-2-ol], in “in vivo”, the 50% lethal dose (LD50) at 168 h is greater than 1470 mg/kg. For the same compound, the inhibition in vivo at 75 mg/kg in series [1] (setting [3]) was found to be 29%. This compound also returned an inhibition in vivo at 300 mg/kg with secretion in the stomach (Rattus norvegicus) of 0%.
Taken in the same sequence, the figures for `COCCN(CC(O)CNC(=O)c1ccco1)c1ccc(Cl)cc1` (stereo not shown) [Compound 13, N1-furoyl-N2-methoxyethyl-N2-(4-chlorophenyl)-1,3-diaminopropan-2-ol] were greater than 1470 mg/kg, 35% and 0%.
On the same counts, the results for `COc1ccc(C(=O)NCC(O)CNc2ccccc2Cl)cc1OC` (stereo not shown) [Compound 14, N1-(3,4-dimethoxybenzoyl)-N2-(2-chlorophenyl)-1,3-diaminopropan-2-ol] are greater than 6700 mg/kg, 33% and 0%.
Taken in the same sequence, the figures for `COc1ccc(C(=O)NCC(O)CN(C)c2ccc(F)cc2)cc1OC` (stereo not shown) [Compound 15, N1-(3,4-dimethoxybenzoyl)-N2-methyl-N2-(4-fluorophenyl)-1,3-diaminopropan-2-ol] were greater than 6810 mg/kg, 32% and 0%.
Take `COc1ccc(C(=O)NCC(O)CN(C)c2ccc(Cl)c(Cl)c2)cc1OC` (stereo not shown) [Compound 16, N1-(3,4-dimethoxybenzoyl)-N2-methyl-N2-(3,4-dichlorophenyl)-1,3-diaminopropan-2-ol]: the LD50 at 168 h in “in vivo” was greater than 6810 mg/kg. Further, the inhibition in vivo at 75 mg/kg in series [1] (setting [3]) was determined as 38%. Moreover, the inhibition in vivo at 300 mg/kg in the series on secretion in the stomach (Rattus norvegicus) was found to be 0%.
Taken in the same sequence, the figures for `CCCN(CC(O)CNC(=O)c1ccc(OC)c(OC)c1)c1ccc(Cl)cc1` (stereo not shown) [Compound 17, N1-(3,4-dimethoxybenzoyl)-N2-propyl-N2-(4-chlorophenyl)-1,3-diaminopropan-2-ol] were greater than 6810 mg/kg, 34% and 0%.
On the same counts, the results for `CN(CC(O)CNC(=O)c1ccccc1F)c1ccc(Cl)c(Cl)c1` (stereo not shown) [Compound 18, N1-(2-fluorobenzoyl)-N2-methyl-N2-(3,4-dichlorophenyl)-1,3-diaminopropan-2-ol] are greater than 1470 mg/kg, 33% and 0%.
On to `CC(C)c1ccc(N(C)CC(O)CNC(=O)c2ccco2)cc1` (stereo not shown) [Compound 19, N1-furoyl-N2-methyl-N2-(4-isopropylphenyl)-1,3-diaminopropan-2-ol], for which, in the series “in vivo”, the LD50 at 168 h was greater than 1470 mg/kg. The compound also had an inhibition in vivo at 75 mg/kg in series [1] (setting [3]) of 31%. The compound also returned an inhibition in vivo at 300 mg/kg in the series on secretion in the stomach (Rattus norvegicus) of 0%.
